Measurements: PMC11647902, “Design, Synthesis, and Biological Evaluation of [1,2,5]Oxadiazolo[3,4-b]pyridin-7-ol as Mitochondrial Uncouplers for the Treatment of Obesity and Metabolic Dysfunction-Associated Steatohepatitis” (Journal of Medicinal Chemistry, 2024)

Legend:
in vivo = settings: male, C57BL/6, mouse, plasma, po, 10 mg/kg
Experimental: The exposure levels in plasma were determined by liquid chromatography/mass spectrometry (LC/MS) and half-life was calculated. […] Samples were processed at UNSW for liquid chromatography tandem mass spectrometry (LC–MS/MS) by protein precipitation into a mixture of acetonitrile/methanol solution (AcN-MeOH, 9:1). Seven μL of plasma was precipitated in 100 μL of AcN-MeOH, followed by centrifugation at 18,000g for 10 min and collection of the supernatant for analysis. […] Chromatographic separation was achieved using an ACUITY UPLC BEH, C18 column (Waters, WT186002350, USA). Mobile phase A consisted of 0.1% v/v formic acid in HLPC grade water, while mobile phase B consisted of 0.1% v/v formic acid in ACN. Electrospray ionization (ESI) was performed in negative mode. […] Pharmacokinetic properties were calculated using PKSolver add-in tool (Excel).

L6 rat myoblasts = test: OCR Seahorse assay (oxygen consumption rate, mitochondrial uncoupling); settings: Rattus norvegicus; for EC50: L6; for Emax at 200 µM: L6, read-out: % of BAM15 OCR, L6 myoblasts, integrated area under OCR dose curve above baseline relative to BAM15 of same experiment, NA = No Activity, highest tested concentration 200 μM
Experimental: With 7 and 9 derivatives in hand, we screened for mitochondrial uncoupling activity as a function of oxygen consumption rate (OCR). […] OCR was measured using an Agilent Seahorse XF24 or XFe96 Analyzer (Agilent Technologies, Santa Clara, CA). L6 myoblasts were seeded in a Seahorse 24 or 96-well tissue culture plate at a density of 3.5 × 10^4 cells/well. The cells were then allowed to adhere overnight. […] Compounds were injected during the assay, and OCR was measured using 2 min measurement periods. Cells were treated with a single drug concentration per well and measured over a 90 min period. Two wells were used per condition and, where applicable, results from multiple plates were averaged together. The first three measurements after injection for each concentration were averaged to produce a dose curve. […] AUC values were also calculated using the same software.

[1] = set-up: method as in PMID 38629387; settings: STEP-1 clinical trials; cited from earlier work
GAN mouse model of MASH = test: Gubra-Amylin NASH (GAN) diet mouse model of MASH; format: in vivo
L6 myoblast cells = test: Mitochondrial stress test and self-limiting test (OCR); settings: L6 myoblasts
[2] = 200 mg kg^–1 in GAN diet, 4 weeks

| Molecule | Cmax at 24 h (in vivo) [µM] | half-life at 24 h (in vivo) [h] | EC50 (L6 rat myoblasts) [nM] | Emax at 200 µM (L6 rat myoblasts) [%] | other results |
| --- | --- | --- | --- | --- | --- |
| Oc1c(Nc2ccc(-c3ccc(Cl)cc3)cc2)cnc2nonc12 [7ap, 6-((4′-Chloro-[1,1′-biphenyl]-4-yl)amino)-[1,2,5]oxadiazolo[3,4-b]pyridin-7-ol] | 4 | 1.8 ± 0.25 | 900 ± 100 | < 50 | – |
| Oc1c(Nc2ccc(-c3cccc(F)c3)cc2)cnc2nonc12 [7al, 6-((3′-Fluoro-[1,1′-biphenyl]-4-yl)amino)-[1,2,5]oxadiazolo[3,4-b]pyridin-7-ol] | 4 | 0.9 ± 0.34 | 1200 ± 100 | 36 | – |
| semaglutide | – | – | – | – | loss of lean mass [1]: up to 40% |
| Oc1c(Nc2ccc(-c3cccc(Cl)c3)cc2)cnc2nonc12 [SHO1122147, 6-((3′-Chloro-[1,1′-biphenyl]-4-yl)amino)-[1,2,5]oxadiazolo[3,4-b]pyridin-7-ol] | 35 | 2 ± 0.07 | 3600 ± 100 | 55 | loss of body weight (GAN mouse model of MASH; 200 mg kg^–1 admixed in GAN diet, 4 weeks): 15.4%; fat mass as percent of body weight (EchoMRI) (GAN mouse model of MASH; [2]): lowering fat mass; fat-free lean mass as percent of body weight (EchoMRI) (GAN mouse model of MASH; [2]): increasing fat-free lean mass; liver mass (GAN mouse model of MASH; [2]): no significant change; liver triglycerides (GAN mouse model of MASH; [2]): decreased; plasma alanine aminotransferase (ALT) (GAN mouse model of MASH; [2]): decreased; fibrosis stage (GAN mouse model of MASH; 200 mg kg^–1 in GAN diet, 4 weeks, compared to GAN controls): No changes; MAFLD activity score (GAN mouse model of MASH; 200 mg kg^–1 in GAN diet, 4 weeks, primarily due to decreased hepatic steatosis): significant decrease; caloric intake (GAN mouse model of MASH; 200 mg kg^–1 in GAN diet, food intake monitored daily): no significant changes; body temperature (GAN mouse model of MASH; 200 mg kg^–1 day^–1): without changes in body temperature; respiration (OCR) in self-limiting test (L6 myoblast cells; SHO1122147 10 μM, BAM15 1.1 μM): 200%; OCR after blockade with oligomycin (L6 myoblast cells; oligomycin 1 μM, then SHO1122147 10 μM or BAM15 1.1 μM at t = 40 min): increased OCR |
| Oc1c(Nc2ccc(F)cc2F)cnc2nonc12 [7u, 6-((2,4-Difluorophenyl)amino)-[1,2,5]oxadiazolo[3,4-b]pyridin-7-ol] | – | – | 40000 ± 1900 | 83 | – |
| Oc1c(Nc2ccc(-c3ccc(F)cc3)cc2)cnc2nonc12 [7ao, 6-((4′-Fluoro-[1,1′-biphenyl]-4-yl)amino)-[1,2,5]oxadiazolo[3,4-b]pyridin-7-ol] | 6 | 0.9 ± 0.07 | 1700 ± 200 | < 50 | – |
| Oc1c(-c2ccc(Cl)cc2)cnc2nonc12 [9e, 6-(4-Chlorophenyl)-[1,2,5]oxadiazolo[3,4-b]pyridin-7-ol] | – | – | 12000 ± 600 | 52 | – |
